Laboratory results taken from patent US7816522B2, “Triazolone derivatives” (Eisai Co., Ltd., priority 2006, dated 2010).
Structures can show the parent of a compound that is named as a salt.

Target: T1, human clotting factor VIIa (Homo sapiens, UniProt P08709)
T1 construct: a human clotting factor VIIa (hereinafter, “Factor VIIa”) purified sample; purchased Enzyme Research Laboratories HFVIIa
Assay: Inhibitory activity against clotting factor VIIa (chromogenic substrate Spectrozyme FVIIa, TF/Factor VIIa enzyme solution)
Assay type: biochemical
Details: human Factor VIIa 5 nmol/L with human TF 10 nmol/L, room temperature 40 minutes, 405 nm
Experimental: [Inhibitory Activity Against Clotting Factor VIIa]
Dimethylsulfoxide (DMSO) solutions were prepared with compounds of the invention at concentration of 10 mmol/L (10 mmol/L compound solutions).
One packet of tris-hydroxymethylaminomethane-preset (hereinafter referred to as “Tris preset”) (Product of Sigma Corp., Catalog No. T8293), 8.8 g of sodium chloride (NaCl) and 1 g of bovine serum albumin (hereinafter abbreviated as “BSA”) were dissolved in 1 L of water to prepare a Tris-BSA buffer (100 mmol/L Tris, 0.15 mol/L NaCl, 0.1% BSA, pH 7.4).
This Tris-BSA buffer (180 μL) was added to the aforementioned 10 mmol/L compound solution (20 μL). A 10-fold dilution series was prepared for this mixture using the aforementioned Tris-BSA buffer, and solutions with the compound at concentrations of 1.0 mmol/L, 100, 10, 1, 0.1, 0.01 and 0.001 μmol/L were prepared (1.0 mmol-0.001 μmol/L compound solutions). As a control, a solution was prepared by 10-fold dilution of DMSO with the Tris-BSA buffer (hereinafter referred to as “control 10% solution”).
After dissolving one packet of Tris preset, NaCl (8.8 g) and BSA (1 g) in water (about 900 mL), there were added 1 mol/L aqueous calcium chloride (CaCl2) (15 mL) and 1 mg/mL aqueous cephalin (30 mL), and the total volume was brought to 1 L by adding water. To this solution there was added a human tissue factor (hereinafter, “TF”) sample (product of Calbiochem, Catalog No. 612151) (450 μg) to a TF sample concentration of 10 nmol/L, and then a human clotting factor VIIa (hereinafter, “Factor VIIa”) purified sample (product of Enzyme Research Laboratories, Catalog No. HFVIIa) (250 μg) was added to a Factor VIIa purified sample concentration of 5 nmol/L, to prepare an enzyme solution (100 mmol/L Tris-HCl, 0.15 mol/L NaCl, 15 mmol/L CaCl2, 30 μg/mL cephalin, 1 mg/mL BSA, 10 nmol/L TF, 5 nmol/L Factor VIIa).
To 110 μL of this enzyme solution there was added 15 μL of each of the 1.0 mmol-0.001 μmol/L compound solutions, and then 25 μL of a 1.0 mmol/L synthetic chromogenic substrate solution (Spectrozyme FVIIa, product of American Diagnostica, Catalog No. 217L) was added and the mixture was allowed to stand at room temperature for 40 minutes. Next, the amount of 4-nitroanilide released into the solution was quantitated by spectrophotometry (405 nm).
A control measurement was conducted in the same manner, using the control 10% solution instead of the compound solution.
This measurement yielded the enzyme reaction inhibition in the presence of 100 μmol/L to 0.1 nmol/L of each compound of the invention.
The enzyme reaction inhibition at each compound concentration was subjected to non-linear regression analysis, and the IC50 value for inhibitory activity of each compound against clotting factor VIIa was calculated.

T1 sequence (P08709 213-466 limits assumed): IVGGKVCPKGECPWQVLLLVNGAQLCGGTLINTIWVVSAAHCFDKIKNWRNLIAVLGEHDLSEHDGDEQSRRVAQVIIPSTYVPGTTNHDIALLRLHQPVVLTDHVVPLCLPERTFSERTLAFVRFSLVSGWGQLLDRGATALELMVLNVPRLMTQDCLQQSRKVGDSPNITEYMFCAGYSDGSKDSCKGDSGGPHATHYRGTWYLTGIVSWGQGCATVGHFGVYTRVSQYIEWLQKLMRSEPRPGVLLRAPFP
T1 sequence (P08709 61-212 limits assumed): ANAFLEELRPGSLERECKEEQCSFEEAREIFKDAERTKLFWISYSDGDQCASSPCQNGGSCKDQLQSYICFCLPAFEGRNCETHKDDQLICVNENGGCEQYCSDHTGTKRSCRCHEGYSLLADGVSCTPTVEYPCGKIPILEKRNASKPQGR
T1 sequence (P13726 33-295 partner): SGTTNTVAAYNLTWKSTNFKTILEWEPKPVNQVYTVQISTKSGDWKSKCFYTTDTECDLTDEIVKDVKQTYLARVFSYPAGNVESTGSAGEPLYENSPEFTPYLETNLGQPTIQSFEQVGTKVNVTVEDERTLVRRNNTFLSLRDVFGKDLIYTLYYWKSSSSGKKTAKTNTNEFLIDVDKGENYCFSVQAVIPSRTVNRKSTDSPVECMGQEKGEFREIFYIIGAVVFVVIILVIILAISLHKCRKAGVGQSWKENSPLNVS

Compound	IC50
COc1cc(C(Nc2ccc(C(=N)N)cc2)c2nn(-c3ncsc3C(=O)O)c(=O)[nH]2)c(F)c2c1OCOC2 (racemic) [Example 165, (R) and (S)-4-{3-[(4-carbamimidoylphenylamino)-(5-fluoro-8-methoxy-4H-benzo[1,3]dioxin-6-yl)methyl]-5-oxo-4,5-dihydro-[1,2,4]triazol-1-yl}thiazole-5-carboxylic acid]	25.8 nM
COc1cc(C(Nc2ccc(C(=N)N)cc2)c2nn(-c3ncccn3)c(=O)[nH]2)c(F)c2c1OCC2 (racemic) [Example 161, (R) and (S)-4-{[(4-fluoro-7-methoxy-2,3-dihydrobenzofuran-5-yl)-(5-oxo-1-pyrimidin-2-yl-4,5-dihydro-1H-[1,2,4]triazol-3-yl)methyl]-amino}benzamidine acetate]	9 nM
COC(=O)c1sccc1-n1nc(C(Nc2ccc(C(=N)N)cc2)c2cc3c(c(OC)c2)OCOC3)[nH]c1=O (racemic) [Example 152, (R) and (S)-3-{3-[(4-carbamimidoylphenylamino)-(8-methoxy-4H-benzo[1,3]dioxin-6-yl)methyl]-5-oxo-4,5-dihydro[1,2,4]triazol-1-yl}thiophene-2-carboxylic acid methyl ester acetate]	1.2 nM
CCc1cc(OCC(=O)N(C)C)c(F)c(C(Nc2ccc(C(=N)N)cc2)c2nn(-c3ccccc3NC(=O)OC)c(=O)[nH]2)c1 (stereo not drawn) [Example 135, (2-{3-[(4-carbamimidoylphenylamino)-(3-dimethylcarbamoylmethoxy-5-ethyl-2-fluorophenyl)methyl]-5-oxo-4,5-dihydro-1H-[1,2,4]triazol-1-yl}phenyl)carbamic acid methyl ester trifluoroacetate]	8.6 nM
N=C(N)c1ccc(NC(c2nn(-c3ncccn3)c(=O)[nH]2)c2cc(OCCF)cc(OCCF)c2F)cc1 (racemic) [Example 98, 4-{[(R) and (S)-[2-fluoro-3,5-bis-(2-fluoroethoxy)phenyl]-(5-oxo-1-pyrimidin-2-yl-4,5-dihydro-1H-[1,2,4]triazol-3-yl)methyl]amino}benzamidine acetate]	28.7 nM
COc1cc(C(Nc2ccc(C(=N)N)cc2)c2nn(-c3cnccn3)c(=O)[nH]2)cc2c1OCOC2 (racemic) [Example 102, 4-{[(R) and (S)-(8-methoxy-4H-benzo[1,3]dioxin-6-yl)-(5-oxo-1-pyrazin-2-yl-4,5-dihydro-1H-[1,2,4]triazol-3-yl)methyl]amino}benzamidine acetate]	11.5 nM
CCOc1cc(OC)c(F)c(C(Nc2ccc(C(=N)N)cc2)c2nn(-c3cccnn3)c(=O)[nH]2)c1 (racemic) [Example 71, (R) and (S)-4-{[(5-ethoxy-2-fluoro-3-methoxyphenyl)-(5-oxo-1-pyridazin-3-yl-4,5-dihydro-1H-[1,2,4]triazol-3-yl)methyl]amino}benzamidine acetate]	7.7 nM
COCc1cc(OC)cc(C(Nc2ccc(C(=N)N)cc2)c2nn(-c3cccnn3)c(=O)[nH]2)c1 (racemic) [Example 73, (R) and (S)-4-{[(3-methoxy-5-methoxymethylphenyl)-(5-oxo-1-pyridazin-3-yl-4,5-dihydro-1H-[1,2,4]triazol-3-yl)methyl]amino}benzamidine trifluoroacetate]	11.2 nM
CCOc1cc(C(Nc2ccc(C(=N)N)cc2)c2nn(-c3ncccn3)c(=O)[nH]2)cc2c1OCOC2 (racemic) [Example 28, (R) and (S)-4-{[(8-ethoxy-4H-benzo[1,3]dioxin-6-yl)-(5-oxo-1-pyrimidin-2-yl-4,5-dihydro-1H-[1,2,4]triazol-3-yl)methyl]amino}benzamidine acetate]	8.9 nM
COC(=O)c1ccccc1-n1nc(C(Nc2ccc(C(=N)N)cc2)c2cc(OC)c(OC)cc2F)[nH]c1=O (racemic) [Example 108, (R) and (S)-2-{3-[(4-carbamimidoylphenylamino)-(2-fluoro-4,5-dimethoxyphenyl)methyl]-5-oxo-4,5-dihydro-[1,2,4]triazol-1-yl}benzoic acid methyl ester acetate]	8 nM
COc1cc(OCCO)c(F)c(C(Nc2ccc(C(=N)N)cc2)c2nn(-c3ncccn3)c(=O)[nH]2)c1 (racemic) [Example 153, 4-({[2-fluoro-3-(2-hydroxyethoxy)-5-methoxyphenyl]-(5-oxo-1-pyrimidin-2-yl-4,5-dihydro-1H-[1,2,4]triazol-3-yl)methyl}amino)benzamidine]	4.8 nM
COCCOc1cc(OC)cc(C(Nc2ccc(C(=N)N)cc2)c2nn(-c3cccnn3)c(=O)[nH]2)c1 (racemic) [Example 7, (R) and (S)-4-({[3-methoxy-5-(2-methoxyethoxy)phenyl]-(5-oxo-1-pyridazin-3-yl-4,5-dihydro-1H-[1,2,4]triazol-3-yl)methyl}amino)benzamidine acetate]	9.9 nM
COc1cc(C(Nc2ccc(C(=N)N)cc2)c2nn(-c3ncccn3)c(=O)[nH]2)cc2c1OCCCO2 (racemic) [Example 156, (R) and (S)-4-{[(9-methoxy-3,4-dihydro-2H-benzo[b][1,4]dioxepin-7-yl)-(5-oxo-1-pyrimidin-2-yl-4,5-dihydro-1H-[1,2,4]triazol-3-yl)methyl]amino}benzamidine acetate]	5.2 nM
CCOc1cc(C(Nc2ccc(C(=N)N)cc2)c2nn(-c3ccccc3C(=O)O)c(=O)[nH]2)c(F)cc1OC (racemic) [Example 122, (R) and (S)-2-{3[(4-carbamimidoylphenylamino)-(5-ethoxy-2-fluoro-4-methoxyphenyl)methyl]-5-oxo-4,5-dihydro-[1,2,4]triazol-1-yl}benzoic acid acetate]	2 nM
COc1cc(C)cc(C(Nc2ccc(C(=N)N)cc2)c2nn(-c3ncccn3)c(=O)[nH]2)c1 (racemic) [Example 93, 4-{[(R) and (S)-(3-methoxy-5-methylphenyl)-(5-oxo-1-pyrimidin-2-yl-4,5-dihydro-1H-[1,2,4]triazol-3-yl)methyl]amino}benzamidine acetate]	30.3 nM

Next, values leading:

IC50	Compound
6.1 nM	COc1cc(C(Nc2ccc(C(=N)N)cc2)c2nn(-c3ncccc3C(=O)O)c(=O)[nH]2)c(F)c2c1OCCCO2 (racemic) [Example 176, (R) and (S)-2-{3-[(4-carbamimidoylphenylamino)-(6-fluoro-9-methoxy-3,4-dihydro-2H-benzo[b][1,4]dioxepin-7-yl)methyl]-5-oxo-4,5-dihydro-[1,2,4]triazol-1-yl}nicotinic acid]
52.4 nM	COc1cc(OCCO)c(F)c(C(Nc2ccc(C(=N)N)c(F)c2)c2nn(-c3ncccn3)c(=O)[nH]2)c1 (racemic) [Example 218, 2-Fluoro-4-{[[2-fluoro-3-(2-hydroxyethoxy)-5-methoxyphenyl]-(5-oxo-1-pyrimidin-2-yl-4,5-dihydro-1H-[1,2,4]triazol-3-yl)methyl]amino}benzamidine]
11.6 nM	CCOc1cc(C(Nc2ccc(C(=N)N)cc2)c2nn(-c3ncsc3C(=O)O)c(=O)[nH]2)cnc1OC (single isomer, unassigned) [Example 185, 4-{3-[(4-Carbamimidoylphenylamino)-(5-ethoxy-6-methoxypyridin-3-yl)methyl]-5-oxo-4,5-dihydro-[1,2,4]triazol-1-yl}thiazole-5-carboxylic acid]
5.7 nM	C#Cc1cc(OCCO)cc(C(Nc2ccc(C(=N)N)cc2)c2nn(-c3ncccn3)c(=O)[nH]2)c1 (racemic) [Example 212, 4-{[[3-Ethynyl-5-(2-hydroxyethoxy)phenyl]-(5-oxo-1-pyrimidin-2-yl-4,5-dihydro-1H-[1,2,4]triazol-3-yl)methyl]amino}benzamidine]
2.6 nM	COc1cc(OCCO)c(F)c(C(Nc2ccc(C(=N)N)cc2)c2nn(-c3ccsc3C(=O)O)c(=O)[nH]2)c1 (racemic) [Example 228, (R) and (S)-3-(3-{(4-Carbamimidoylphenylamino)-[2-fluoro-3-(2-hydroxyethoxy)-5-methoxyphenyl]methyl}-5-oxo-4,5-dihydro[1,2,4]triazol-1-yl)thiophene-2-carboxylic acid]
11.1 nM	COc1cc(C(Nc2ccc(C(=N)N)cc2)c2nn(-c3ncccn3)c(=O)[nH]2)cnc1OC (racemic) [Example 234, 4-{[(5,6-Dimethoxypyridin-3-yl)-(5-oxo-1-pyrimidin-2-yl-4,5-dihydro-1H-[1,2,4]triazol-3-yl)methyl]amino}benzamidine]
